Results taken from US7488476B2, “B-cell epitope peptides of HSP 65, DNA encoding said peptides, antibodies directed against said peptides and the different uses thereof in the treatment of inflammatory and autoimmune diseases” (priority 1998, dated 2009).

Tests used:
rat immunoglobulins [1] = experiment: ELISA: antibodies of rat sera to Mycobacterial HSP 65 and its peptides; assay type: binding
rat immunoglobulins [2] = experiment: Dot-Blot of rat immunoglobulins with synthetic HSP peptides; assay type: binding
Protocol: Dot Blots assay: Antigens were dissolved in PBS and samples of 1 μg were adsorbed on Nitrocellulose paper. The paper was air-dried and incubated with BSA 1% in PBS for 20 min. to block non-specific binding. The samples were then washed in PBS-Tween 0.05% and incubated with rat sera diluted 1:100 in BSA-PBS, for 90 min. at room temp. Samples were washed and incubated with goat anti rat antibody conjugated to alkaline phosphatase diluted 1:1000 in BSA-PBS for 90 min. at RT. After re-washing the color reaction was developed by adding a mixture of BCIP-NBT (Sigma-Fast, Sigma) to the […] for 15 min. The reaction was stopped by the addition of tap water.
To define the epitopes recognized by the anti bacterial HSP antibodies, the inventors tested by Dot-Blot the interaction of immunoglobulins from naive young BN rats and post AA Lewis rats with 90 16-mer synthetic peptides of the Mycobacterial 65 KD HSP. Immunoglobulins from naive young Lewis rats served as control.
(§1) Immunoglobulins from naive Lewis and BN rats and post-AA Lewis rats were tested for binding to 38 synthetic 20-mer peptides of the mammalian HSP 60 by Dot-Blot. […] Quantitative analysis of this binding as well as the binding of immunoglobulins from four and nine month old Lewis rats confirmed the dot blot findings (Table 3).

rat immunoglobulins [3] = experiment: ELISA: antibodies of rat sera to mammalian HSP 60 and its peptides; assay type: binding
Protocol: (§2) ELISA: Flat-bottomed 96 well plates (Corning) were coated with mammalian HSP 60 or Mycobacterial HSP 65 (10 μg/ml) in carbonate buffer pH 9.6 overnight at 4° C.
After extensive washing with PBS-Tween 0.05% plates were incubated with blocking buffer containing 1% BSA (Sigma) for 60 min. at RT.
(§3) HSP peptides were attached to plates pre-treated with glutaraldehyde according to Kasprzyk et al.. Shortly, plates were coated with 100 μl/well of 5% w/v of glutaraldehyde in PBS for 1 hour at room temp. Plates were washed thoroughly with PBS and peptides (1 μg/100 μl) were added to each well, incubated overnight at 4° C. Plates were shaken dry and blocked with BSA 1% in PBS.
(§4) Plates coated with either HSP or peptides were washed again and incubated with rat sera diluted 1:100 with PBS-Tween 0.01% for 90 min. at room temp. After re-washing the plates were incubated with Goat anti rat IgG or IgM conjugated to alkaline-phosphatase for 60 min. at room temp. […] Optical density was measured photometrically at 405 nm.
Previous studies have shown that certain bacterial HSP peptides may trigger self HSP reactive T-cells with disease suppressive regulatory potential. To analyze the anti self-HSP antibody repertoire of these rats, the reactivity of Ig's from naive and post AA Lewis rats as well as from naive BN rats to whole mammalian HSP 60 was tested by ELISA.
as §1

Lewis rats [4] = experiment: Anti HSP antibodies in Lewis rats immunized with HSP peptides (ELISA); assay type: in vivo, rat; settings: 100 μg peptide in PBS, 3 times IP; for Anti HSP Antibodies in Immunized Lewis Rats, Antigen 6: antigen peptide 6; for Anti HSP Antibodies in Immunized Lewis Rats, Antigen 7: antigen peptide 7
Protocol: as §2, §3, §4
Modulation of AA by mycobacterial and mammalian HSP peltides: HSP 65 derived peptides were tested for their ability to modulate the appearance or severity of AA in Lewis rats. Rats were immunized with 100 μg of each peptide in PBS, three weeks (3W), 2W and 1W before induction of AA by MT. Control rats received PBS. Rats were bled for testing antibody presence before injection of MT and 30 days post MT injection.
To test whether active immunization with bacterial or mammalian HSP peptides that are recognized by protective immunoglobulins can induce protection against AA, Lewis rats were immunized with the mycobacterial peptides 6, 7, 21, 31, 36, 45, 84, that bound antibodies from resistant Lewis rats (“protective” peptides), with some non-reactive mycobacterial HSP 65 peptides: peptide 26 (residues 151-166), 28 (residues 163-178) or peptide 70 (residues 415-430), and with the mammalian peptide 5.
Rats were injected 3 times intraperitoneally (IP), with one week intervals between injections before induction of AA with MT.

Lewis rats [5] = experiment: Modulation of Adjuvant Arthritis by pre-immunization with HSP peptides; assay type: in vivo, rat; settings: 3 IP injections at one week intervals before AA induction with MT, FIG. 4
[6] = all of the rats immunoglobulins tested
[7] = BN and post-AA Lewis rats, not naive Lewis rats

| Substance | Antibodies to Mycobacterial HSP 65 Peptides (rat immunoglobulins [1]; strain BN-6w) | Antibodies to Mycobacterial HSP 65 Peptides (rat immunoglobulins [1]; strain Lew-4m) | Antibodies to Mycobacterial HSP 65 Peptides (rat immunoglobulins [1]; strain Lew-6w) | Antibodies to Mycobacterial HSP 65 Peptides (rat immunoglobulins [1]; strain Lew-9m) | Antibodies to Mycobacterial HSP 65 Peptides (rat immunoglobulins [1]; strain Lew-Post AA) | reaction with immunoglobulins in Dot-Blot (rat immunoglobulins [2]; Lewis rats immunized with CFA) | reaction with immunoglobulins in Dot-Blot (rat immunoglobulins [2]; [6]) | Antibodies to Mammalian HSP 60 Peptides (rat immunoglobulins [3]; strain BN-6w) | Antibodies to Mammalian HSP 60 Peptides (rat immunoglobulins [3]; strain Lew-4m) | Antibodies to Mammalian HSP 60 Peptides (rat immunoglobulins [3]; strain Lew-6w) | Antibodies to Mammalian HSP 60 Peptides (rat immunoglobulins [3]; strain Lew-9m) | Antibodies to Mammalian HSP 60 Peptides (rat immunoglobulins [3]; strain Lew-Post AA) | reaction with immunoglobulins in Dot-Blot (rat immunoglobulins [2]; [7]) | Anti HSP Antibodies in Immunized Lewis Rats, Antigen M5 (Lewis rats [4]) | Anti HSP Antibodies in Immunized Lewis Rats, Antigen MT-HSP 65 (Lewis rats [4]) | Anti HSP Antibodies in Immunized Lewis Rats, Antigen 6 (Lewis rats [4]) | Anti HSP Antibodies in Immunized Lewis Rats, Antigen 7 (Lewis rats [4]) | AA disease severity after pre-immunization (Lewis rats [5]) |
| --- | --- | --- | --- | --- | --- | --- | --- | --- | --- | --- | --- | --- | --- | --- | --- | --- | --- | --- |
| 21: 16-mer synthetic peptide of Mycobacterial HSP 65, residues 121-136, SEQ ID #10 [Peptide 21] | − (<O. 15 = −) | − (<O. 15 = −) | − (<O. 15 = −) | − (<O. 15 = −) | + (0.16-0.45 = +) | reacted |  |  |  |  |  |  |  |  |  |  |  |  |
| 31: 16-mer synthetic peptide of Mycobacterial HSP 65, residues 181-196, SEQ ID #11 [Peptide 31] | + (0.16-0.45 = +) | − (<O. 15 = −) | − (<O. 15 = −) | ++ (0.46-0.75 = ++) | ++ (0.46-0.75 = ++) |  |  |  |  |  |  |  |  |  |  |  |  |  |
| 36: 16-mer synthetic peptide of Mycobacterial HSP 65, residues 211-226, SEQ ID #12 [Peptide 36] | ++ (0.46-0.75 = ++) | + (0.16-0.45 = +) | − (<O. 15 = −) | + (0.16-0.45 = +) | +++ (>0.75 = +++) |  |  |  |  |  |  |  |  |  |  |  |  |  |
| 40: 16-mer synthetic peptide of Mycobacterial HSP 65, residues 236-251, SEQ ID #13 [Peptide 40] | ++ (0.46-0.75 = ++) | + (0.16-0.45 = +) | + (0.16-0.45 = +) | ++ (0.46-0.75 = ++) | ++ (0.46-0.75 = ++) |  | reacted |  |  |  |  |  |  |  |  |  |  |  |
| 45: 16-mer synthetic peptide of Mycobacterial HSP 65, residues 265-280, SEQ ID #14 [Peptide 45] | + (0.16-0.45 = +) | + (0.16-0.45 = +) | − (<O. 15 = −) | + (0.16-0.45 = +) | ++ (0.46-0.75 = ++) |  |  |  |  |  |  |  |  |  |  |  |  |  |
| 59: 16-mer synthetic peptide of Mycobacterial HSP 65, residues 349-364, SEQ ID #15 [Peptide 59] | + (0.16-0.45 = +) | − (<O. 15 = −) | − (<O. 15 = −) | − (<O. 15 = −) | +++ (>0.75 = +++) |  |  |  |  |  |  |  |  |  |  |  |  |  |
| 63: 16-mer synthetic peptide of Mycobacterial HSP 65, residues 373-388, SEQ ID #16 [Peptide 63] | + (0.16-0.45 = +) | + (0.16-0.45 = +) | + (0.16-0.45 = +) | +++ (>0.75 = +++) | ++ (0.46-0.75 = ++) |  | reacted |  |  |  |  |  |  |  |  |  |  |  |
| 84: 16-mer synthetic peptide of Mycobacterial HSP 65, residues 499-514, SEQ ID #17 [Peptide 84] | − (<O. 15 = −) | − (<O. 15 = −) | − (<O. 15 = −) | − (<O. 15 = −) | + (0.16-0.45 = +) | reacted |  |  |  |  |  |  |  |  |  |  |  |  |
| HSP 65: Recombinant HSP 65 of Mycobacterium Tuberculosis | +++ (>0.75 = +++) | − (<O. 15 = −) | − (<O. 15 = −) | + (0.16-0.45 = +) | ++ (0.46-0.75 = ++) |  |  |  |  |  |  |  |  |  |  |  |  |  |
| M 30: 20-mer synthetic peptide of the mammalian HSP 60, residues 436-455 (IVLGGGCALLRCIPALDSLK) |  |  |  |  |  |  |  | + (0.16-0.45 = +) | − (<O. 15 = −) | − (<O. 15 = −) | ++ (0.46-0.75 = ++) | ++ (0.46-0.75 = ++) | reacted |  |  |  |  |  |
| TVIIEQSWGSPKVTKDGVTV (listed as Rattus norvegicus) [Peptide R5, mammalian HSP 60 peptide, residues 61-80] |  |  |  |  |  |  |  | + (0.16-0.45 = +) | − (<O. 15 = −) | − (<O. 15 = −) | ++ (0.46-0.75 = ++) | +++ (>0.75 = +++) | reacted | − (<O. 15 = −) | + (0.16-0.45 = +) | + (0.16-0.45 = +) | − (<O. 15 = −) | significant suppression of disease severity |
| VVLEKKWGAPTITNDG [Peptide 7] | + (0.16-0.45 = +) | − (<O. 15 = −) | − (<O. 15 = −) | + (0.16-0.45 = +) | + (0.16-0.45 = +) |  |  |  |  |  |  |  |  | − (<O. 15 = −) | + (0.16-0.45 = +) | + (0.16-0.45 = +) | − (<O. 15 = −) | significant suppression of disease severity |
